From patent publication US6964975B2, “Isoxazole and thiazole compounds and use thereof as medicine” (Kirin Beer Kabushiki Kaisha, priority 2000, dated 2005) come the findings set out here.

For one assay, the system named is Human EDG-2/HepG2 cells. Description: Inhibitory activity on LPA-accelerated [3H] thymidine incorporation (cell proliferation). In kind it is cell-based. The following applies: 50% inhibition of LPA-induced increase of [3H] thymidine incorporation. The text has this:
(§1) The human EDG-2 expression plasmid was introduced into HepG2 cells by electroporation. After the introduction, culturing was continued while exchanging selective media every 3 to 4 days, thereby obtaining an expressed colony. Regarding these cells, Ca-influx and cell-proliferation by LPA, level of [^3H] LPA binding and the like were inspected to select a cell line which highly expresses human EDG-2 (human EDG-2/HepG2).
Human EDG-2/HepG2 cells suspended in 10% bovine serum-containing DMEM (Dulbecco's modified eagle medium) were plated on a 96-well plate and, on the next day, the medium was exchanged with serum-free DMEM. 24 hours later, the medium was exchanged with DMEM containing LPA or DMEM containing no LPA, cells were cultured for further 16 hours, and [^3H] thymidine was then added. After culturing for 8 hours subsequent to the addition of [^3H] thymidine, cells were washed with PBS (phosphate-buffered saline), and the amount of [^3H] thymidine incorporated into the cells were assayed by Betaplate filter counter system (Amersham Pharmacia Biotech). The difference between the amount of [^3H] thymidine incorporated in the LPA-added well and the amount of [^3H] thymidine incorporated in the well containing no LPA represents the amount of [^3H] thymidine incorporation accelerated by LPA. […] The test compounds were added immediately before the LPA addition.

The target of another assay is T1, human EDG-2 (Homo sapiens, UniProt Q92633).
T1 construct: cDNA of the cloned human EDG-2 was introduced into pEFneo, which is an animal expression vector; expressed in transfected cells; host or cells: HepG2
T1 sequence (Q92633 whole entry): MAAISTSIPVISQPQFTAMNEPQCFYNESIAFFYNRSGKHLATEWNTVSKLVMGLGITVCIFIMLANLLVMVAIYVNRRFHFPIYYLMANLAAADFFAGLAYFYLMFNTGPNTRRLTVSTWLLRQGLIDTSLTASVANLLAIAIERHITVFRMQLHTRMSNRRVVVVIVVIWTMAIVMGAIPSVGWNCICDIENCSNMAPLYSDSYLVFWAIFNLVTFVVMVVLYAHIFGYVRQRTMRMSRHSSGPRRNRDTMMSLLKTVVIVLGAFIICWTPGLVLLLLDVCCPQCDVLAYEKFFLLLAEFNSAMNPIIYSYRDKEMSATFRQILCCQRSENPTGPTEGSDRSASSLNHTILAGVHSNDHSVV
Description: Inhibitory activity on LPA-induced elevation of intracellular Ca2+ level. In kind it is cell-based. The following applies: 50% inhibition of elevation of intracellular Ca2+ level by LPA, human EDG-2/HepG2 cells, fura-2.
Description: as §1
Human EDG-2/HepG2 cells were washed and then suspended in 0.1% BSA (bovine serum albumin)-containing HEPES buffer. A fluorescent indicator, fura-2/AM (Wako Pure Chemical Industries, Ltd.), was added, and the mixture was shaken at room temperature for 45 minutes so that the indicator is included in the cell. Cells were washed again and then suspended in 0.1% BSA-containing HEPES buffer, and intracellular Ca^2+ level was assayed using FDSS2000 (Hamamatsu Photonics). […] Each test compound was added to the cell suspension followed by the addition of LPA, thereby examining the inhibitory activity of the test compound on the function of LPA for elevating the intracellular Ca level. […] The lower the IC50 value, the higher the antagonistic activity on the LPA receptor.

The IC50 is the point on the concentration scale where inhibition reaches its midpoint. Low values mean inhibition by little substance, high ones a need for much substance. As to `CCNCc1ccc(-c2onc(C)c2NC(=O)OC(C)c2ccccc2Cl)cc1` (stereo not shown) [Compound 116, 1-(2-Chlorophenyl)ethyl N-(5-{4-[(ethylamino)methyl]phenyl}-3-methyl-4-isoxazolyl)-carbamate], the IC50 in the assay on Human EDG-2/HepG2 cells was in the range of 0.3 to 1 µM; against human EDG-2, 30 to 100 µM.
The corresponding values for `Cc1noc(-c2cccc(CSCCS(=O)(=O)O)c2)c1NC(=O)OC(C)c1ccccc1Cl` (stereo not shown) [Compound 158, 2-({3-[4-({[1-(2-Chlorophenyl)ethoxy]carbonyl}amino)-3-methyl-5-isoxazolyl]benzyl}-sulfanyl)-1-ethanesulfonic acid] are 1 µM and 3 to 10 µM.
The corresponding values for `CCOC(=O)CSCc1cccc(-c2onc(C)c2NC(=O)OC(C)c2ccccc2Cl)c1` (stereo not shown) [Compound 140, Ethyl 2-({3-[4-({[1-(2-chlorophenyl)ethoxy]carbonyl}amino)-3-methyl-5-isoxazolyl]benzyl}-sulfanyl)acetate] are 0.3 to 1 µM and 3 to 10 µM.
With `Cc1noc(-c2ccc(CSc3nc[nH]n3)cc2)c1NC(=O)OC(C)c1ccccc1Cl` (stereo not shown) [Compound 136, 1-(2-Chlorophenyl)ethyl N-(3-methyl-5-{4-[(1H-1,2,4-triazol-3-ylsulfanyl)methyl]-phenyl}-4-isoxazolyl)carbamate], the IC50 in the assay on Human EDG-2/HepG2 cells lay in the range of 0.1 to 0.3 µM; against human EDG-2, 3 to 10 µM.
The corresponding values for `CCc1noc(-c2ccc(CSCC(=O)OC)cc2)c1NC(=O)OC(C)c1ccccc1Cl` (stereo not shown) [Compound 153, Methyl 2-({4-[4-({[1-(2-chlorophenyl)ethoxy]carbonyl}amino)-3-ethyl-5-isoxazolyl]benzyl}-sulfanyl)acetate] are 0.3 µM and 3 to 10 µM.
The corresponding values for `Cc1noc(-c2ccc(CSCC(=O)O)cc2)c1NC(=O)OC(C)c1ccccc1Cl` (stereo not shown) [Compound 121, 2-({4-[4-({[1-(2-Chlorophenyl)ethoxy]carbonyl}amino)-3-methyl-5-isoxazolyl]benzyl}-sulfanyl)acetic acid] are 0.03 to 0.1 µM and 3 to 10 µM.
The corresponding values for `CCc1noc(-c2ccc(CSCC(=O)O)cc2)c1NC(=O)OC(C)c1ccccc1Cl` (stereo not shown) [Compound 154, 2-({4-[4-({[1-(2-Chlorophenyl)ethoxy]carbonyl}amino)-3-ethyl-5-isoxazolyl]benzyl}-sulfanyl)acetic acid] are 0.1 to 0.3 µM and 3 to 10 µM.
As to `COC(=O)CSCc1ccc(-c2onc(C)c2NC(=O)OC(C)c2ccccc2Cl)cc1` (stereo not shown) [Compound 118, Methyl 2-({4-[4-({[1-(2-chlorophenyl)ethoxy]carbonyl}-amino)-3-methyl-5-isoxazolyl]-benzyl}-sulfanyl)acetate], the IC50 in the assay on Human EDG-2/HepG2 cells fell in the range of 0.1 to 0.3 µM; against human EDG-2, 1 to 3 µM.
In the same order, the values of `CCOC(=O)COCc1ccc(-c2onc(C)c2NC(=O)OC(c2ccccc2)C(F)(F)F)cc1` (stereo not shown) [Compound 169, Ethyl 2-{[4-(3-methyl-4-{[(2,2,2-trifluoro-1-phenylethoxy)carbonyl]amino}-5-isoxazolyl)-benzyl]oxy}acetate] are 1 to 3 µM and 3 to 10 µM.
The corresponding values for `CCOC(=O)COCc1ccc(-c2onc(C)c2NC(=O)OC(C)c2ccccc2Cl)cc1` (stereo not shown) [Compound 168, Ethyl 2-({4-[4-({[1-(2-chlorophenyl)ethoxy]carbonyl}amino)-3-methyl-5-isoxazolyl]-benzyl}oxy)acetate] are 1 µM and 3 to 10 µM.
In the case of `CCOCc1cccc(-c2onc(C)c2NC(=O)OC(C)c2ccccc2Cl)c1` (stereo not shown) [Compound 129, 1-(2-Chlorophenyl)ethyl N-{5-[3-(ethoxymethyl)phenyl]-3-methyl-4-isoxazolyl}carbamate], the IC50 in the assay with Human EDG-2/HepG2 cells lay within 0.3 to 1 µM; on human EDG-2, 3 to 10 µM.
On to `Cc1noc(-c2ccc(COc3ccccc3)cc2)c1NC(=O)OC(C)c1ccccc1Cl` (stereo not shown) [Compound 79, 1-(2-Chlorophenyl)ethyl N-[3-methyl-5-[4-(phenoxymethyl)phenyl]-4-isoxazolyl]carbamate], for which, at human EDG-2, half-maximal inhibition (IC50) was put at 3 µM.
On the same count and under the same terms, next, `Cc1ccc(-c2noc(C)c2NC(=O)OC(C)c2ccccc2Cl)cc1` (stereo not shown) [Compound 5, 1-(2-Chlorophenyl)ethyl N-[5-methyl-3-(4-methylphenyl)-4-isoxazolyl]carbamate]: 10 to 30 µM; `Cc1noc(-c2ccc(COCc3c(F)cccc3F)cc2)c1NC(=O)OC(C)c1ccccc1Cl` (stereo not shown) [Compound 83, 1-(2-Chlorophenyl)ethyl N-[5-(4-[[(2,6-difluorobenzyl)oxy]methyl]phenyl)-3-methyl-4-isoxazolyl]carbamate]: 10 µM; `Cc1onc(-c2cccc(C(F)(F)F)c2)c1NC(=O)OC(C)c1ccccc1Cl` (stereo not shown) [Compound 15, 1-(2-Chlorophenyl)ethyl N-[5-methyl-3-[3-(trifluoromethyl)phenyl]-4-isoxazolyl]carbamate]: 30 µM.
The same measure, in the same setting: next, `Cc1noc(-c2ccc(C#N)cc2)c1NC(=O)OC(C)c1ccccc1` (stereo not shown) [Compound 46, 1-Phenylethyl N-[5-(4-cyanophenyl)-3-methyl-4-isoxazolyl]carbamate]: 3 to 10 µM; `Cc1noc(-c2c(-c3ccccc3)noc2C)c1NC(=O)OC(C)c1ccccc1Cl` (stereo not shown) [Compound 72, 1-(2-Chlorophenyl)ethyl N-[5-(3-phenyl-5-methyl-4-isoxazolyl)-3-methyl-4-isoxazolyl]carbamate]: 10 to 30 µM; `Cc1noc(-c2cccc(Cl)c2)c1NC(=O)OC(C)c1ccccc1Cl` (stereo not shown) [Compound 39, 1-(2-Chlorophenyl)ethyl N-[5-(3-chlorophenyl)-3-methyl-4-isoxazolyl]carbamate]: 10 µM.
Same read-out and setting: then `Cc1noc(-c2cccc([N+](=O)[O-])c2)c1NC(=O)OC(C)c1ccccc1Cl` (stereo not shown) [Compound 59, 1-(2-Chlorophenyl)ethyl N-[3-methyl-5-(3-nitrophenyl)-4-isoxazolyl]carbamate], with 3 to 10 µM; and `Cc1noc(-c2ccc3c(c2)OCO3)c1NC(=O)OC(C)c1ccccc1Cl` (stereo not shown) [Compound 52, 1-(2-Chlorophenyl)ethyl N-[5-(1,3-benzodioxol-5-yl)-3-methyl-4-isoxazolyl]carbamate], with 30 µM; and `Cc1ccsc1-c1onc(C)c1NC(=O)OC(C)c1ccccc1` (stereo not shown) [Compound 66, 1-Phenylethyl N-[3-methyl-5-(3-methyl-2-thienyl)-4-isoxazolyl]carbamate], with 10 µM.
Regarding `C=CC(OC(=O)Nc1c(-c2ccccc2)noc1C)c1ccccc1` (stereo not shown) [Compound 81, 1-Phenylallyl N-(5-methyl-3-phenyl-4-isoxazolyl)carbamate], the IC50 against human EDG-2 lay within 30 to 100 µM.
With `Cc1onc(-c2ccccc2)c1NC(=O)OCCc1ccccc1` [Compound 96, Phenethyl N-(5-methyl-3-phenyl-4-isoxazolyl)carbamate], the IC50 on human EDG-2 lay within 30 to 100 µM.
The same measure, in the same setting: then `Cc1onc(-c2ccccc2)c1NC(=O)O[C@H](C)c1ccccc1Cl` [Compound 17, (1R)-1-(2-Chlorophenyl)ethyl N-(5-methyl-3-phenyl-4-isoxazolyl)carbamate], with 3 µM; and `Cc1noc(-c2cccc(F)c2)c1NC(=O)OC(C)c1ccccc1Cl` (stereo not shown) [Compound 30, 1-(2-Chlorophenyl)ethyl N-[5-(3-fluorophenyl)-3-methyl-4-isoxazolyl]carbamate], with 3 to 10 µM; and `COc1ccc(-c2onc(C)c2NC(=O)OC(C)c2ccccc2Cl)cc1` (stereo not shown) [Compound 50, 1-(2-Chlorophenyl)ethyl N-[5-(4-methoxyphenyl)-3-methyl-4-isoxazolyl]carbamate], with 10 to 30 µM.
